Here are results for one substance from US10130677B2, “Antimicrobial peptide and uses thereof” (priority 2013, dated 2018).

The subject of experiment [1] is S. aureus JAR060131 biofilm formation. It counts as cell-based, Staphylococcus aureus. As for the experimental part: After solubilization with ethanol, the optical density at 590 nm is determined as a measure of biofilm mass.
Peptides were incubated with 1×10^8 CFU/ml of S. aureus JAR060131 in biofilm-adjusted BM2 in 96-wells polypropylene plates as described in Antimicrob Agents Chemother 2012; 56: 2696-2704. After 24 hours incubation at 37° C., planktonic bacteria were removed by four washes with PBS and biofilms were stained with crystal violet. After solubilization with ethanol, the optical density at 590 nm was determined as a measure of biofilm mass.
To assess the antibiofilm activity of the peptides in the presence of plasma, 96-wells polypropylene plates were coated with plasma by overnight incubation with 20% plasma at 4° C. Wells were washed once with sterile water and inoculated with S. aureus and peptides as described above.

The test system of experiment [2] is bacteria. It counts as cell-based. An excerpt: The currently known AMPs, including OP-145, still have a few drawbacks. For instance, various bacteria, such as P. aeruginosa, E. faecalis, Proteus mirabilis, Streptococcus pyogenes and S. aureus all secrete proteases that degrade several antimicrobial peptides, such as the cathelicidin LL-37. Thus, protease resistant antimicrobial peptides are advantageous from a therapeutical standpoint. Furthermore, due to potential lytic effect as well as other properties of AMPs against bacterial but also mammalian membranes, one of the challenges in designing new peptides relies on developing AMPs with high specificity against microorganisms such as bacterial or fungal cells as compared to cellular membranes of the infected patient, i.e., a high therapeutic index (minimal hemolytic concentration/minimal antimicrobial activity; MHC/MEC). Another important disadvantage of known AMPs, including OP-145, is that its activity is strongly affected by the presence of plasma components. For instance, for OP-145 the LC99.9 (the lowest peptide concentration which kills ≥99.9% of bacteria) in PBS of 1.6 μM, whereas the LC99.9 in PBS/plasma (1:1) is about 200 μM. This is in particular a disadvantage for systemically administered AMPs.

Like-named read-outs stand apart in the source and are kept apart here.

For the substance “Ac-IGKEFKRIVERIKRFLRELVRPLR-NH2 [OP-145, JIGKEFKRIVERIKRFLRELVRPLRB, reference compound]”, the IC50 in experiment [1] (JAR060131 biofilm formation, 24 h) amounted to 3.2 µM; in experiment [1] (plasma-coated wells (FIG. 3B), read-out: concentration inhibiting biofilm formation for 50%) it was 3.2 µM. In addition, the LC99.9 is 1.6 µM in experiment [2] (PBS) and “about 200 μM” in experiment [2] (PBS/plasma (1:1)).
